The record followed here is patent US5607937A, “Piperazides of substituted phenylalanine derivatives as thrombin inhibitors” (priority 1993, dated 1997).

pKi: −log10 of the molar value. Like-named read-outs stand apart in the source and are kept apart here. Where only a bound is given, the exact number is not on record here.

One assay addresses factor Xa (Bos taurus, UniProt P00743). As to the kind of experiment: inhibition of factor Xa, dissociation constant Ki. It is filed as biochemical. The following applies: Table 1. On the procedure:
(§1) The biological activity of the compounds of the present invention was determined in vitro as well as in vivo.

The target of assay [1] is T1, thrombin (Bos taurus, UniProt P00735). As to the kind of experiment: biochemical.
The next assay deals with tPA (Homo sapiens, UniProt P00750). As to the kind of experiment: inhibition of tPA, dissociation constant Ki.
The target in the next assay is plasmin (Homo sapiens, UniProt P00747). As to the kind of experiment: inhibition of plasmin, dissociation constant Ki.
For another assay, the target named is T2, factor XIIa (Homo sapiens, UniProt P00748).
T2 sequence (P00748 373-615 limits assumed): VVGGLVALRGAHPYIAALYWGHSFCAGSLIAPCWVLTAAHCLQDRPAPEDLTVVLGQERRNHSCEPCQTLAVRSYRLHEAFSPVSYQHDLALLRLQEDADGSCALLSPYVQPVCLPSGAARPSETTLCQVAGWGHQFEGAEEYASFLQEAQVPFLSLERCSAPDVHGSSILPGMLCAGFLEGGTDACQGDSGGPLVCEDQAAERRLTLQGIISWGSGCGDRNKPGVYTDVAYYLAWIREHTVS
As to the kind of experiment: inhibition of factor XIIa, dissociation constant Ki.

Another assay has as its target plasma kallikrein (Homo sapiens, UniProt P03952). As to the kind of experiment: inhibition of plasma kallikrein, dissociation constant Ki.
For a further assay, the target named is glandular kallikrein (Sus scrofa, UniProt P00752). As to the kind of experiment: inhibition of glandular kallikrein, dissociation constant Ki.
A further assay has as its target T3, trypsin (Bos taurus, UniProt P00760).
T3 sequence (P00760 24-246): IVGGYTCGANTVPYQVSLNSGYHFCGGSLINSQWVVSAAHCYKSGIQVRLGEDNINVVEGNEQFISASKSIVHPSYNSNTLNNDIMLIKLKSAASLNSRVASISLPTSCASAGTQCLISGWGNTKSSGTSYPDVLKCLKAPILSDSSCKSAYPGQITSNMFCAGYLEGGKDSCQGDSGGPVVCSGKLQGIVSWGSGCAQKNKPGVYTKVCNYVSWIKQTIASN
As to the kind of experiment: inhibition of trypsin, dissociation constant Ki. The following applies: Table 1; read-out: Ki, Trypsin. Further details: thrombin and the related enzymes trypsin, plasmin, factor Xa, factor XIIa. It is filed as biochemical. On the procedure:
as §1

Assay [2] has as its target T1, thrombin. The following applies: read-out: Ki, Thrombin; Table 1.

Chain of plasma kallikrein (P03952 391-638 limits assumed, species assumed): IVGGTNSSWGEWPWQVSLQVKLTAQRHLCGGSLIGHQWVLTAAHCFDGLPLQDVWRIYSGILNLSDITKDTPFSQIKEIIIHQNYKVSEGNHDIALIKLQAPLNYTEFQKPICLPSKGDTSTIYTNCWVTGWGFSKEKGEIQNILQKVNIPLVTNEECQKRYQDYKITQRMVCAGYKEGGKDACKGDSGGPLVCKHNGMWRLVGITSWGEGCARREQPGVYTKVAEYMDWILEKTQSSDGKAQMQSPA
Chain of plasma kallikrein (P03952 20-390 partner limits assumed, species assumed): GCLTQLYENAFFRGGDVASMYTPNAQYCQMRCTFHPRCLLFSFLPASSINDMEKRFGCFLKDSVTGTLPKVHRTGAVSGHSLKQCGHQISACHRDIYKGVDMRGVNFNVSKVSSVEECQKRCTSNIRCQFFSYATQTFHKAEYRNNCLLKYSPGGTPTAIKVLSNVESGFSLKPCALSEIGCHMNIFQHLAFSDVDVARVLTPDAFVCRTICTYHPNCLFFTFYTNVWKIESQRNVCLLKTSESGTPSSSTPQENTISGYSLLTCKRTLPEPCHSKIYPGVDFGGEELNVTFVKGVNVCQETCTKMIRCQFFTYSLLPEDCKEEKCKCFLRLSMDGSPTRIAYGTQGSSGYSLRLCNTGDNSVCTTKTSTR
Chain of plasmin (P00747 581-810 limits assumed): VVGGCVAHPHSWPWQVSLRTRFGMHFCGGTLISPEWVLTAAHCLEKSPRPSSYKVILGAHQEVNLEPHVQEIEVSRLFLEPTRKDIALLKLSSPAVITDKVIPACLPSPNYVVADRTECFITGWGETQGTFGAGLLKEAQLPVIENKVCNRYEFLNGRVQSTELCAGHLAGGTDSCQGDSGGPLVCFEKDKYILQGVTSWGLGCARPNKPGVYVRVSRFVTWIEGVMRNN
Chain of plasmin (P00747 97-580 partner limits assumed): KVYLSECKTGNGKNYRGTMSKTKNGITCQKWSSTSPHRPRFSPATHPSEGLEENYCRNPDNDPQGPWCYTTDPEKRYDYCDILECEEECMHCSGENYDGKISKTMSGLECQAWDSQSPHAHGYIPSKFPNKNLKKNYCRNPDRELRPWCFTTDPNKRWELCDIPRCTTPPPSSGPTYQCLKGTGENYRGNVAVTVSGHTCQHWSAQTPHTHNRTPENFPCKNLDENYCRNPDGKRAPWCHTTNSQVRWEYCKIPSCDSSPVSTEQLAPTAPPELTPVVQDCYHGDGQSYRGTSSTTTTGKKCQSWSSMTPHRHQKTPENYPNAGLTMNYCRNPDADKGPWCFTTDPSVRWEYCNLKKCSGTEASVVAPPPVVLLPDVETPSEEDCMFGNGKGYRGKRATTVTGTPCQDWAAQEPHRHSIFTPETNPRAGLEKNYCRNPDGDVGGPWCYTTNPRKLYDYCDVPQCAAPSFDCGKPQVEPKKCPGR
Chain of factor Xa (P00743 234-492 limits assumed): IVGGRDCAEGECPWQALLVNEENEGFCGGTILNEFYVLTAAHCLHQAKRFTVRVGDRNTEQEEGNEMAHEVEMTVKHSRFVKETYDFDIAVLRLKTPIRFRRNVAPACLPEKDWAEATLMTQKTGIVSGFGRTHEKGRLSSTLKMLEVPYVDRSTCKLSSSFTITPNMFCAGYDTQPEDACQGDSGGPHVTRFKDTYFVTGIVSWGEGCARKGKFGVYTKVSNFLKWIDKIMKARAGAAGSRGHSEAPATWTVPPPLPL
Chain of factor Xa (P00743 41-180 partner limits assumed): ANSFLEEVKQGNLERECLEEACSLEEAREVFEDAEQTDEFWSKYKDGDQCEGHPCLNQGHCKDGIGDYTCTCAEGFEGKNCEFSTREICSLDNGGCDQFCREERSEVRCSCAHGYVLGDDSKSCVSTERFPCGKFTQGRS
Chain of tPA (P00750 36-562): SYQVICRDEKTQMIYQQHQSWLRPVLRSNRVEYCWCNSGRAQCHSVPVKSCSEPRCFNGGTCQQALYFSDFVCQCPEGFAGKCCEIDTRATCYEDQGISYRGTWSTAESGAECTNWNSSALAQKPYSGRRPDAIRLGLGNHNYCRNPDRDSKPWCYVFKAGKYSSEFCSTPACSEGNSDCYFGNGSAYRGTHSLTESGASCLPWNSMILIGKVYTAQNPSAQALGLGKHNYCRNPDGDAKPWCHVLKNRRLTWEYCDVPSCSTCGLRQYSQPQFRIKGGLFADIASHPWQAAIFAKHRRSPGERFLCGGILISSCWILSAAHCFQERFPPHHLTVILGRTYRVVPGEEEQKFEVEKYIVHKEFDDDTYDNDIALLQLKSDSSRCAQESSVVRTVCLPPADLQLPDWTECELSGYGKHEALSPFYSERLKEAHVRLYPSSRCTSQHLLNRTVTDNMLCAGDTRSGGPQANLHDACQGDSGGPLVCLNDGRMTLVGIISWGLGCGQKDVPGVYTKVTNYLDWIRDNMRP
Chain of glandular kallikrein (P00752 8-246): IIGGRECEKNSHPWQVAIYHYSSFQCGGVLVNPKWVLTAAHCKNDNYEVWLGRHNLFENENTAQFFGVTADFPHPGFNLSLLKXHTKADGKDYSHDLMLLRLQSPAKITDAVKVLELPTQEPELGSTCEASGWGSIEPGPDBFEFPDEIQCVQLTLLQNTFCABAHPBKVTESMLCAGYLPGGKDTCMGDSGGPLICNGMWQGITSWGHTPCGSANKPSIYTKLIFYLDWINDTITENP

The term pKi denotes −log10 of the Ki, conventionally taken in molar units. For the molecule `N=C(N)c1cccc(CC(NS(=O)(=O)c2ccc3ccccc3c2)C(=O)N2CCN(c3ccccn3)CC2)c1` (centres unmarked) [AMD 2-Naph 2-Pyl], the pKi on factor Xa is 4.92; at thrombin [1], 6.28; on tPA, less than 3.00; at plasmin, 5.48; at factor XIIa it was 4.08; at plasma kallikrein, 4.72. In addition, the results for the pKi on glandular kallikrein and on trypsin were less than 3.00 and 7.46, respectively.
As to `N=C(N)c1cccc(CC(NS(=O)(=O)c2ccc3ccccc3c2)C(=O)N2CCN(c3ncccn3)CC2)c1` (centres unmarked) [AMD 2-Naph 2-Pym], the pKi on factor Xa was 4.85; at thrombin [1], 5.74; on tPA, 3.49; at plasmin, 5.48; at factor XIIa, 4.00; on plasma kallikrein, 4.72. Moreover, the negative-log Ki (pKi) was less than 3.00 on glandular kallikrein and 7.21 at trypsin.
On to `CCCCCC(=O)N1CCN(C(=O)C(Cc2cccc(C(=N)N)c2)NS(=O)(=O)c2ccc3ccccc3c2)CC1` (centres unmarked) [AMD 2-Naph CO(CH2)4 CH3], for which the pKi at factor Xa is 4.72; on thrombin [2], 5.19; on tPA, less than 3.00; at plasmin (read-out: Ki, Plasmin, Table 1) it was 5.59; at factor XIIa, 3.57; at plasma kallikrein, 4.64. Besides, the negative logarithm of the Ki (pKi) on glandular kallikrein was less than 3.00.
`N=C(N)c1cccc(CC(NS(=O)(=O)c2ccc3ccccc3c2)C(=O)N2CCN(C(=O)C3CCC3)CC2)c1` (centres unmarked) [AMD 2-Naph CO-cBu]: the pKi was 5.60 on thrombin [1]; less than 3.00 at tPA; 5.12 on plasmin; less than 3.00 at factor XIIa; 4.25 on plasma kallikrein; less than 3.00 at glandular kallikrein. Further, at trypsin, the pKi was 7.59.
Regarding `N=C(N)c1cccc(CC(NS(=O)(=O)c2ccc3ccccc3c2)C(=O)N2CCN(C(=O)C3CCCCC3)CC2)c1` (centres unmarked) [AMD 2-Naph CO-cHex], the pKi on tPA was less than 3.00; on plasmin (read-out: Ki, Plasmin, Table 1), 4.99; on factor XIIa, 3.46; on plasma kallikrein it was 4.10; at glandular kallikrein, less than 3.00.
On to `N=C(N)c1cccc(CC(NS(=O)(=O)c2ccc3ccccc3c2)C(=O)N2CCN(C(=O)C3CC3)CC2)c1` (centres unmarked) [AMD 2-Naph CO-cPr], for which the pKi is 4.35 on factor Xa; 6.85 at thrombin [1]; 3.77 on tPA; 5.29 on plasmin; 3.27 at factor XIIa; 4.66 on plasma kallikrein. For the same molecule, the pKi was less than 3.00 on glandular kallikrein and 7.36 at trypsin.
For `COCC(=O)N1CCN(C(=O)C(Cc2cccc(C(=N)N)c2)NS(=O)(=O)c2ccc3ccccc3c2)CC1` (centres unmarked) [AMD 2-Naph COCH2 OMe], the negative-log Ki (pKi) was 4.80 at factor Xa; 5.89 on thrombin [1]; less than 3.00 at tPA; 5.21 at plasmin; 4.13 on factor XIIa; 4.80 on plasma kallikrein. Also, the pKi at glandular kallikrein was less than 3.00; at trypsin, 7.18.
For `CC(C)C(=O)N1CCN(C(=O)C(Cc2cccc(C(=N)N)c2)NS(=O)(=O)c2ccc3ccccc3c2)CC1` (centres unmarked) [AMD 2-Naph COCH(Me)2], the pKi on factor Xa is 4.08; at thrombin [1], 6.59; at tPA it was 3.36; on plasmin it was 5.03; on factor XIIa, less than 3.00; at plasma kallikrein, 4.30. The pKi at glandular kallikrein is less than 3.00; on trypsin, 7.20.
Consider `COc1cc(C)c(S(=O)(=O)N2CCN(C(=O)C(Cc3cccc(C(=N)N)c3)NS(=O)(=O)c3ccc4ccccc4c3)CC2)c(C)c1C` (centres unmarked) [AMD 2-Naph SO2 -Mtr], for which the pKi is 4.60 at factor Xa; 7.30 on thrombin [1]; less than 3.00 on tPA; 4.43 at plasmin; 5.12 at factor XIIa; 5.16 at plasma kallikrein. The pKi on glandular kallikrein is less than 3.00; at trypsin it was 5.82.
For the molecule `Cc1cc(C)c(S(=O)(=O)N2CCN(C(=O)C(Cc3cccc(C(=N)N)c3)NS(=O)(=O)c3ccc4ccccc4c3)CC2)c(C)c1` (centres unmarked) [AMD 2-Naph SO2 -TMeP], the pKi at factor Xa was 4.89; on thrombin [1], 7.12; on tPA, less than 3.00; on plasmin it was 4.51; at factor XIIa, 3.16; on plasma kallikrein it was 6.00. The negative-log Ki (pKi) on glandular kallikrein was less than 3.00; at trypsin, 6.23.
As for `CS(=O)(=O)N1CCN(C(=O)C(Cc2cccc(C(=N)N)c2)NS(=O)(=O)c2ccc3ccccc3c2)CC1` (centres unmarked) [AMD 2-Naph SO2 Me], the negative-log Ki (pKi) is 4.66 at factor Xa; less than 3.00 at tPA; 4.92 on plasmin (read-out: Ki, Plasmin, Table 1); 4.07 on factor XIIa; 4.11 on plasma kallikrein; less than 3.00 at glandular kallikrein.
`N=C(N)c1cccc(CC(NS(=O)(=O)c2ccc3ccccc3c2)C(=O)N2CCN(C(=O)Cc3cccs3)CC2)c1` (centres unmarked) [AMD 2-Naph drawing 11]: the negative logarithm of the Ki (pKi) is 4.80 at factor Xa; 5.60 on thrombin [1]; 3.77 on tPA; 5.57 on plasmin; 4.14 on factor XIIa; 4.72 at plasma kallikrein. The results for the negative-log Ki (pKi) on glandular kallikrein and at trypsin were less than 3.00 and 7.09, respectively.
In the case of `N=C(N)c1cccc(CC(NS(=O)(=O)c2ccc3c(c2)C(=O)c2ccccc2C3=O)C(=O)N2CCN(C=O)CC2)c1` (centres unmarked) [AMD AC For], the negative logarithm of the Ki (pKi) at factor Xa was 5.77; on thrombin [1], 7.51; on tPA, 4.08; on plasmin it was 4.89; at factor XIIa, 5.14; at plasma kallikrein, 4.96. The negative logarithm of the Ki (pKi) was less than 3.00 on glandular kallikrein and 7.48 on trypsin.
For the molecule `CC(=O)N1CCN(C(=O)C(Cc2cccc(C(=N)N)c2)NS(=O)(=O)c2c(C)c(C)c3c(c2C)CCC(C)(C)O3)CC1` (centres unmarked) [AMD Pmc Ac], the pKi at factor Xa was 3.82; on thrombin [1], 7.13; on tPA, 3.17; on plasmin it was 4.94; at factor XIIa it was 3.38; on plasma kallikrein, 4.36. The pKi on glandular kallikrein was 3.12; on trypsin it was 6.22.
For the molecule `Cc1c(C)c(S(=O)(=O)NC(Cc2cccc(C(=N)N)c2)C(=O)N2CCN(C(=O)N(C)C)CC2)c(C)c2c1OC(C)(C)CC2` (centres unmarked) [AMD Pmc CO-N(Me)2], the pKi on factor Xa is 4.59; at thrombin [1] it was 7.48; on tPA, less than 3.00; at plasmin, 4.89; at factor XIIa, less than 3.00; at plasma kallikrein it was 4.03. Further, the pKi was less than 3.00 on glandular kallikrein and 6.24 on trypsin.
Regarding `Cc1c(C)c(S(=O)(=O)NC(Cc2cccc(C(=N)N)c2)C(=O)N2CCN(CCO)CC2)c(C)c2c1OC(C)(C)CC2` (centres unmarked) [AMD Pmc EtOH], the pKi on factor Xa was 4.04; at thrombin [1] it was 7.23; at tPA, less than 3.00; on plasmin, 4.32; on factor XIIa, less than 3.00; on plasma kallikrein, 3.74. The values for the pKi on glandular kallikrein and on trypsin were less than 3.00 and 5.48, respectively.
As to `Cc1c(C)c(S(=O)(=O)NC(Cc2cccc(C(=N)N)c2)C(=O)N2CCN(S(C)(=O)=O)CC2)c(C)c2c1OC(C)(C)CC2` (centres unmarked) [AMD Pmc SO2 Me], the negative-log Ki (pKi) was 4.12 on factor Xa; 8.13 at thrombin [2]; less than 3.00 on tPA; 3.85 on factor XIIa; 3.85 at plasma kallikrein; less than 3.00 at glandular kallikrein.
For `CC(=O)N1CCN(C(=O)C(Cc2cccc(C(=N)N)c2)NS(=O)(=O)c2c(C(C)C)cc(C(C)C)cc2C(C)C)CC1` (centres unmarked) [AMD TIPP Ac], the negative logarithm of the Ki (pKi) at factor Xa was 5.40; at thrombin [1], 7.01; on tPA, 4.77; on plasmin (read-out: Ki, Plasmin, Table 1), 5.52; on factor XIIa, 4.33; at plasma kallikrein, 5.14. Besides, the pKi on glandular kallikrein was 3.70; at trypsin it was 6.66.
For `N=C(N)c1cccc(C[C@H](NS(=O)(=O)c2ccc3ccccc3c2)C(=O)N2CCN(C=O)CC2)c1` [AMD(L) 2-Naph For], the pKi is 7.96 on thrombin [1]; 3.92 on tPA; 4.38 on factor XIIa; 5.44 on plasma kallikrein; less than 3.00 on glandular kallikrein; 7.14 on trypsin.
Take `NCc1cccc(CC(NS(=O)(=O)c2ccc3ccccc3c2)C(=O)N2CCN(c3ccccn3)CC2)c1` (centres unmarked) [Ame 2-Naph 2-Pyl]: the pKi on factor Xa is 3.89; at thrombin [1] it was 4.62; on tPA, less than 3.00; on plasmin, 4.59; on factor XIIa, less than 3.00; on plasma kallikrein, 4.03. For the same molecule, the pKi on glandular kallikrein is less than 3.00; at trypsin, 6.28.
